# Assay results taken from PMC5034043 (The Journal of Biological Chemistry, 2016).
# Like-named read-outs stand apart in the source and are kept apart here.
# Tested on: T1, synaptosomal proteome
# T1 construct: from tissue; host or cells: brain synaptosomes of male C57/B6 mice
# Type: binding, mouse
# Protocol: Synaptosomes were resuspended to 1 mg of protein/ml in HEPES buffer medium (in mM: 140 NaCl, 5 KCl, 5 NaHCO3, 1.2 NaH2PO4, 1 MgCl2, 10 glucose, and 10 HEPES (pH 7.4)). […] The samples were allowed to equilibrate for 5 min before being transferred to a parafilm-sealed 1-mm path length quartz cuvette. The sample was then irradiated for 20 min at a peak bandwidth of 350 nm (Rayonet RPR-3500 lamp) ∼6 cm from the light source. Non-irradiated samples were left in the dark at ambient temperature (22–25 °C) for 20 min. All remaining procedures were conducted with restricted light exposure.
# To 750 μg of photolabeled or control synaptosome samples, 40 μl of 10% SDS and 2 μl of 5 mM DTT in water were added. Samples were then vortexed, heated for 10 min at 65 °C, and then briefly cooled. Final concentrations of 150 μM azide-biotin (Click Chemistry Tools), 2 mM tris(3-hydroxypropyltriazolylmethyl)amine (Sigma), 1 mM ascorbic acid (Sigma), and 1 mM CuSO4·5H2O (Sigma) were added to each sample and vortexed vigorously. The samples were left in the dark at ambient temperature (22–25 °C) for 1 h with mild agitation. Directly to each sample 4× volume chilled methanol, 1.5× chilled chloroform, and 3× chilled double distilled H2O were added. Samples were vortexed vigorously and centrifuged at 1,400 × g for 30 min at 4 °C. Both liquid layers were carefully removed, and the protein pellet was washed with 2 ml of 1:1 (v/v) chilled methanol/chloroform. Samples were centrifuged at 3,500 × g for 30 min at 4 °C. Protein pellets were briefly air-dried before further processing.
# 750 μg of biotin-conjugated protein sample was resuspended in 500 μl of 25 mM NH4HCO3 and 6 M urea in water. Next, 150 μl of 5% Triton X-100 in water, 50 μl of 10% SDS in water, and 1.5 μl of 0.5 M DTT were added. The samples were heated for 15 min at 65 °C. After briefly cooling, 14 μl of 0.5 M iodoacetamide in water was added, and the sample was left in the dark for 45 min. […] The supernatant was diluted to 4 ml with PBS, and 2 ml of PBS containing 100 μl of 50% streptavidin-agarose resin (Thermo Scientific) was added. Biotinylated proteins within the sample were captured over resin overnight at 4 °C with mild agitation. The resin was first washed with 6 ml of 1% SDS in PBS, and then 7 ml of 0.1 M urea in PBS followed by 10 ml of PBS. The resin underwent a final wash with 0.9 ml of 50 mM Tris-HCl and 1 mM CaCl2 in water (pH 8.0) and then resuspended in 200 μl of 50 mM Tris-HCl, 1 mM CaCl2 in water (pH 8.0), and 2 μg of porcine sequencing grade trypsin (Promega). Samples were digested overnight at 37 °C. Samples were then centrifuged at 2,000 × g for 4 min, and digest supernatant was decanted. Beads were washed in 100 μl of PBS centrifuged at 5,200 × g for 5 min, and the wash was combined with the digest supernatant. To the combined sample, trifluoroacetic acid (TFA) was added to 0.4% (v/v) or until pH <2. The sample was desalted with Oasis C18 10-mg columns (Waters) as described previously ([66]). The eluted sample was dried by speed vac and resuspended in 0.1 M HEPES buffer (pH 8.5). […] Appropriate corresponding TMTsixplex^TM-labeled samples were pooled and dried by speed vac. The combined samples were resuspended in 0.5% acetic acid in water and pH-corrected with acetic acid until pH was <2. 40 μg of protein was desalted with C18 stage tips prepared in-house and dried by speed vac.
# Samples were resuspended in 10 mM KH2PO4 (pH 2.6), 30% acetonitrile (v/v) in water, and fractionated by off-line strong cation exchange chromatography prior to mass spectrometry (MS) analysis similar to as reported previously ([66]). The full synaptosome proteome control was prepared similarly without TMTsixplex^TM labeling.
# All TMT samples were analyzed with three-stage mass spectrometry (MS3) TMTsixplex^TM quantification workflow as described previously ([34]).
# [1] = protein P26049 Gamma-aminobutyric acid receptor subunit alpha-3 (Gabra3)
# [2] = protein P27671 Ras-specific guanine nucleotide-releasing factor 1 (Rasgrf1)
# [3] = protein P35762 CD81 antigen (Cd81)
# [4] = protein P50571 Gamma-aminobutyric acid receptor subunit beta-1 (Gabrb1)
# [5] = protein P56480 ATP synthase subunit beta, mitochondrial (Atp5b)
# [6] = protein P56564 Excitatory amino acid transporter 1 (Slc1a3)
# [7] = protein P60879 Synaptosomal-associated protein 25 (Snap25)
# [8] = protein P61264 Syntaxin-1B (Stx1b)
# [9] = protein P62204 Calmodulin (Calm1)
# [10] = protein P63328 Serine/threonine-protein phosphatase 2B catalytic subunit alpha isoform (Ppp3ca)
# [11] = protein Q2TPA8 Hydroxysteroid dehydrogenase-like protein 2 (Hsdl2)
# [12] = protein Q3TXX4 Vesicular glutamate transporter 1 (Slc17a7)
# [13] = protein Q3UN02 Lysocardiolipin acyltransferase 1 (Lclat1)
# [14] = protein Q4W8U9 Scg2 protein (Scg2)
# [15] = protein Q5IRJ6 Zinc transporter 9 (Slc30a9)
# [16] = protein Q5U458 DnaJ homolog subfamily C member 11 (Dnajc11)
# [17] = protein Q7TME0 Lipid phosphate phosphatase-related protein type 4 (Lppr4)
# [18] = protein Q7TQ95 Protein lunapark (Lnp)
# [19] = protein Q8BFT9 Synaptic vesicle 2-related protein (Svop)
# [20] = protein Q8BG51 Mitochondrial Rho GTPase 1 (Rhot1)
# [21] = protein Q8BH24 Transmembrane 9 superfamily member 4 (Tm9sf4)
# [22] = protein Q8BH66 Atlastin-1 (Atl1)
# [23] = protein Q8BHE3 Caytaxin (Atcay)
# [24] = protein Q8BUN9 Protein Slc24a2 (Slc24a2)
# [25] = protein Q8BW75 Amine oxidase [flavin-containing] B (Maob)
# [26] = protein Q8CGK7 Guanine nucleotide-binding protein G(olf) subunit alpha (Gnal)
# [27] = protein Q8K0T0 Reticulon-1 (Rtn1)
# [28] = protein Q8VCX5 Calcium uptake protein 1, mitochondrial (Micu1)
# [29] = protein Q9CPQ3 Mitochondrial import receptor subunit TOM22 homolog (Tomm22)
# [30] = protein Q9D6J5 NADH dehydrogenase [ubiquinone] 1 beta subcomplex subunit 8, mitochondrial (Ndufb8)
# [31] = protein Q9D328 Transmembrane protein 35 (Tmem35)
# [32] = protein Q9ERS2 NADH dehydrogenase [ubiquinone] 1 alpha subcomplex subunit 13 (Ndufa13)
# [33] = protein Q9ESW4 Acylglycerol kinase, mitochondrial (Agk)
# [34] = protein Q9JIG8 PRA1 family protein 2 (Praf2)
# [35] = protein Q9QXV0 ProSAAS (Pcsk1n)
# [36] = protein Q9WU79 Proline dehydrogenase 1, mitochondrial (Prodh)
# [37] = protein Q9Z0V2 Potassium voltage-gated channel subfamily D member 2 (Kcnd2)
# [38] = protein Q67BT3 Solute carrier family 13 member 5 (Slc13a5)
# [39] = protein Q80X80 C2 domain-containing protein 2-like (C2cd2l)
# [40] = protein Q91YQ5 Dolichyl-diphosphooligosaccharide--protein glycosyltransferase subunit 1 (Rpn1)
# [41] = protein Q99JB2 Stomatin-like protein 2, mitochondrial (Stoml2)
# [42] = protein Q99PU5 Long-chain-fatty-acid--CoA ligase ACSBG1 (Acsbg1)
# [43] = protein Q925I1 ATPase family AAA domain-containing protein 3 (Atad3)
compound,measurement,setting,value
"C#CCOCc1ccc(C2(C(F)(F)F)N=N2)cc1O [AziPm-click (1), 2-((prop-2-yn-1-yloxy)methyl)-5-(3-(trifluoromethyl)-3H-diazirin-3-yl)phenol]",TMT Ratio Mean 'UV/ No UV',protein O35963 Ras-related protein Rab-33B (Rab33b),16.23
same,Log2( Mean 'UV/ No UV'),protein P23819-4 Isoform 4 of Glutamate receptor 2 (Gria2),3.65
same,Log2( Mean 'UV/ No UV'),[1],4.09
same,TMT Ratio Mean 'UV/ No UV',[1],17.05
same,Log2( Mean 'UV/ No UV'),[2],4.14
same,TMT Ratio Mean 'UV/ No UV',[2],17.58
same,Log2( Mean 'UV/ No UV'),protein P35564 Calnexin (Canx),4.47
same,TMT Ratio Mean 'UV/ No UV',protein P35564 Calnexin (Canx),22.10
same,Log2( Mean 'UV/ No UV'),[3],4.34
same,TMT Ratio Mean 'UV/ No UV',[3],20.23
same,Log2( Mean 'UV/ No UV'),[4],4.63
same,TMT Ratio Mean 'UV/ No UV',[4],24.73
same,Log2( Mean 'UV/ No UV'),[5],3.54
same,TMT Ratio Mean 'UV/ No UV',[5],11.59
same,Log2( Mean 'UV/ No UV'),[6],4.59
same,TMT Ratio Mean 'UV/ No UV',[6],24.11
same,Log2( Mean 'UV/ No UV'),[7],4.57
same,TMT Ratio Mean 'UV/ No UV',[7],23.77
same,Log2( Mean 'UV/ No UV'),[8],4.37
same,TMT Ratio Mean 'UV/ No UV',[8],20.71
same,Log2( Mean 'UV/ No UV'),[9],4.63
same,TMT Ratio Mean 'UV/ No UV',[9],24.78
same,Log2( Mean 'UV/ No UV'),[10],3.65
same,TMT Ratio Mean 'UV/ No UV',[10],12.55
same,Log2( Mean 'UV/ No UV'),protein P70429-2 Isoform 1 of Ena/VASP-like protein (Evl),4.31
same,Log2( Mean 'UV/ No UV'),protein P97300-3 Isoform 3 of Neuroplastin (Nptn),3.67
same,Log2( Mean 'UV/ No UV'),[11],3.68
same,TMT Ratio Mean 'UV/ No UV',[11],12.83
same,Log2( Mean 'UV/ No UV'),[12],4.04
same,TMT Ratio Mean 'UV/ No UV',[12],16.48
same,Log2( Mean 'UV/ No UV'),[13],4.50
same,TMT Ratio Mean 'UV/ No UV',[13],22.69
same,Log2( Mean 'UV/ No UV'),[14],4.03
same,TMT Ratio Mean 'UV/ No UV',[14],16.35
same,Log2( Mean 'UV/ No UV'),[15],4.34
same,TMT Ratio Mean 'UV/ No UV',[15],20.22
same,Log2( Mean 'UV/ No UV'),[16],3.93
same,TMT Ratio Mean 'UV/ No UV',[16],15.27
same,Log2( Mean 'UV/ No UV'),[17],3.46
same,TMT Ratio Mean 'UV/ No UV',[17],10.98
same,Log2( Mean 'UV/ No UV'),[18],3.56
same,TMT Ratio Mean 'UV/ No UV',[18],11.82
same,Log2( Mean 'UV/ No UV'),[19],3.80
same,TMT Ratio Mean 'UV/ No UV',[19],13.90
same,Log2( Mean 'UV/ No UV'),[20],3.48
same,TMT Ratio Mean 'UV/ No UV',[20],11.17
same,Log2( Mean 'UV/ No UV'),[21],4.09
same,TMT Ratio Mean 'UV/ No UV',[21],16.97
same,Log2( Mean 'UV/ No UV'),[22],4.36
same,TMT Ratio Mean 'UV/ No UV',[22],20.55
same,Log2( Mean 'UV/ No UV'),[23],4.15
same,TMT Ratio Mean 'UV/ No UV',[23],17.78
same,Log2( Mean 'UV/ No UV'),protein Q8BJU0-2 Isoform 2 of Small glutamine-rich tetratricopeptide repeat-containing protein alpha (Sgta),3.93
same,Log2( Mean 'UV/ No UV'),[24],4.26
same,TMT Ratio Mean 'UV/ No UV',[24],19.15
same,Log2( Mean 'UV/ No UV'),[25],4.59
same,TMT Ratio Mean 'UV/ No UV',[25],24.13
same,Log2( Mean 'UV/ No UV'),[26],3.86
same,TMT Ratio Mean 'UV/ No UV',[26],14.56
same,Log2( Mean 'UV/ No UV'),[27],3.46
same,TMT Ratio Mean 'UV/ No UV',[27],10.99
same,Log2( Mean 'UV/ No UV'),[28],4.33
same,TMT Ratio Mean 'UV/ No UV',[28],20.04
same,Log2( Mean 'UV/ No UV'),[29],4.38
same,TMT Ratio Mean 'UV/ No UV',[29],20.75
same,Log2( Mean 'UV/ No UV'),[30],4.29
same,TMT Ratio Mean 'UV/ No UV',[30],19.55
same,Log2( Mean 'UV/ No UV'),[31],4.09
same,TMT Ratio Mean 'UV/ No UV',[31],16.99
same,Log2( Mean 'UV/ No UV'),protein Q9DBF1-2 Isoform 2 of Alpha-aminoadipic semialdehyde dehydrogenase (Aldh7a1),3.89
same,Log2( Mean 'UV/ No UV'),protein Q9EPJ9-2 Isoform 2 of ADP-ribosylation factor GTPase-activating protein 1 (Arfgap1),3.44
same,Log2( Mean 'UV/ No UV'),[32],4.27
same,TMT Ratio Mean 'UV/ No UV',[32],19.26
same,Log2( Mean 'UV/ No UV'),[33],4.32
same,TMT Ratio Mean 'UV/ No UV',[33],20.02
same,Log2( Mean 'UV/ No UV'),[34],3.94
same,TMT Ratio Mean 'UV/ No UV',[34],15.37
same,Log2( Mean 'UV/ No UV'),[35],3.87
same,TMT Ratio Mean 'UV/ No UV',[35],14.66
same,Log2( Mean 'UV/ No UV'),[36],4.21
same,TMT Ratio Mean 'UV/ No UV',[36],18.52
same,Log2( Mean 'UV/ No UV'),[37],3.71
same,TMT Ratio Mean 'UV/ No UV',[37],13.09
same,Log2( Mean 'UV/ No UV'),[38],3.47
same,TMT Ratio Mean 'UV/ No UV',[38],11.09
same,Log2( Mean 'UV/ No UV'),[39],4.07
same,TMT Ratio Mean 'UV/ No UV',[39],16.73
same,Log2( Mean 'UV/ No UV'),[40],3.76
same,TMT Ratio Mean 'UV/ No UV',[40],13.55
same,Log2( Mean 'UV/ No UV'),[41],4.08
same,TMT Ratio Mean 'UV/ No UV',[41],16.91
same,Log2( Mean 'UV/ No UV'),[42],4.16
same,TMT Ratio Mean 'UV/ No UV',[42],17.83
same,Log2( Mean 'UV/ No UV'),[43],4.41
same,TMT Ratio Mean 'UV/ No UV',[43],21.20
